Measurements: patent US12622909B2, “Allosteric EGFR inhibitors and methods of use thereof” (Dana-Farber Cancer Institute, Inc., priority 2019, dated 2026)
Like-named read-outs stand apart in the source and are kept apart here.

Legend:
[1] = target: EGFR L858R/T790M mutant Ba/F3 cells (Homo sapiens, UniProt P00533, T790M/L858R, cells depend on it); experiment: Ba/F3 cell proliferation (Cell Titer Glo); format: cell-based, murine; conditions: 72 hours
From the text: All cell lines were maintained in RPMI 1640 (Cellgro; Mediatech Inc., Herndon, CA) supplemented with 10% FBS, 100 units/mL penicillin, 100 units/mL streptomycin. The EGFR I941R mutation was introduced via site directed mutagenesis using the Quick Change Site-Directed Mutagenesis kit (Stratagene; La Jolla, CA) according to the manufacturer's instructions. All constructs were confirmed by DNA sequencing. The constructs were shuttled into the retroviral vector JP1540 using the Cre-recombination system (Agilent Technologies, Santa Clara, CA). Ba/F3 cells were then infected with retrovirus per standard protocols, as described previously (Zhou, et al, Nature 2009). Stable clones were obtained by selection in puromycin (2 μg/ml).
Growth and inhibition of growth was assessed by the Cell Titer Glo assay (Promega, Madison, WI) and was performed according to the manufacturer's instructions. The Cell Titer Glo assay is a luminescence-based method used to determine the number of viable cells based on quantitation of the ATP present, which is directly proportional to the amount of metabolically active cells present. […] All experimental points were set up in triplicates in 384-well plates and all experiments were repeated at least three times. […] The curves were fitted using a non-linear regression model with a sigmoidal dose response.

EGFR L858R/T790M = EGFR L858R/T790M (Homo sapiens, UniProt P00533, L858R/T790M); experiment: HTRF-based EGFR biochemical assay (L858R/T790M); conditions: 100 μM ATP, enzyme 0.02 nM
Chain of EGFR L858R/T790M (P00533 25-1210 T790M/L858R): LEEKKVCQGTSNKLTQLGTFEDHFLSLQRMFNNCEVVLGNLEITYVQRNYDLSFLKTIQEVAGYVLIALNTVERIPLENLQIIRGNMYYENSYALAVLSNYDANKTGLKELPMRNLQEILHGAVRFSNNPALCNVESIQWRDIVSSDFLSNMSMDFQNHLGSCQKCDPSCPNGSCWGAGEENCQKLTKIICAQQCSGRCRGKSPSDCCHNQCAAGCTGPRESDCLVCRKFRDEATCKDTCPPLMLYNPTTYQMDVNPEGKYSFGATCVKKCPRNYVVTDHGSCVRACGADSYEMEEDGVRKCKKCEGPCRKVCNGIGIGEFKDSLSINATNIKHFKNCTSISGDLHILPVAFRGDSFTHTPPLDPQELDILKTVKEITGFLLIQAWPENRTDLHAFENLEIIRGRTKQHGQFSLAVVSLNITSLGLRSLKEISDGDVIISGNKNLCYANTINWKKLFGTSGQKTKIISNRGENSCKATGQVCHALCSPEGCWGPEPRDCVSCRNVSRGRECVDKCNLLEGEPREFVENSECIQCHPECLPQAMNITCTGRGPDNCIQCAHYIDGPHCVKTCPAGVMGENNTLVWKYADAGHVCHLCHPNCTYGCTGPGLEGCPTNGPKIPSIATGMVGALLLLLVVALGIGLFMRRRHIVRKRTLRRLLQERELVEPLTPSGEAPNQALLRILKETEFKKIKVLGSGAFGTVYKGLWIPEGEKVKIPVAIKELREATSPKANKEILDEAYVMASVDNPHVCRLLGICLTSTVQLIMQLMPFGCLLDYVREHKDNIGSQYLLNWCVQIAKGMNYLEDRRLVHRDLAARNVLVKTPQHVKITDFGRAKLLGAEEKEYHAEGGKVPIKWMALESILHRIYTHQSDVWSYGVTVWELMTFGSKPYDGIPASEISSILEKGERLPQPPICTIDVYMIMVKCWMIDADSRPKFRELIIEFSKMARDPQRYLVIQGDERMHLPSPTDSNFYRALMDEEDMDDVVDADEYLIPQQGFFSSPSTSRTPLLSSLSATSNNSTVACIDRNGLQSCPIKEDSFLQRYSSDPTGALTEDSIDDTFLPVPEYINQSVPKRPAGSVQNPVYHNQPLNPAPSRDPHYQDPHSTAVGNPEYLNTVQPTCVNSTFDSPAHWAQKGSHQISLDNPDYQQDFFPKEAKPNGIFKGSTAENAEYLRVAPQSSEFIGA
Procedure: (§1) EGFR biochemical activity measurements were carried out using the homogeneous time-resolved fluorescence (HTRF) assay (Cisbio). Inhibitors and DMSO normalizations were first dispensed to empty black low-volume 384-well plates (Corning) with D300 digital liquid dispenser (HP). All reactions were carried out at room temperature and solutions were added to plates with a Multidrop Combi Reagent Dispenser (ThermoFisher). The reaction mixture (10 μL final volume) contained 1 μM tyrosine kinase peptide-biotin substrate and mutant EGFR in a reaction buffer (50 mM HEPES pH 7.0, 5 mM MgCl2, 1 mM MnCl2, 0.01% BSA, 2 mM TCEP, 0.1 mM NaVO4). […] Enzyme reaction solution (2× concentrations, 5 μL) was added to 384-well plates containing compounds and incubated for 30 mins. Enzyme reactions were initiated with the addition of 5 μL of ATP to a final concentration of 100 μM and reacted for 20 mins.

EGFR L858R = EGFR L858R (Homo sapiens, UniProt P00533, L858R); experiment: HTRF-based EGFR biochemical assay (L858R); conditions: 100 μM ATP, enzyme 0.1 nM
Chain of EGFR L858R (P00533 25-1210 L858R): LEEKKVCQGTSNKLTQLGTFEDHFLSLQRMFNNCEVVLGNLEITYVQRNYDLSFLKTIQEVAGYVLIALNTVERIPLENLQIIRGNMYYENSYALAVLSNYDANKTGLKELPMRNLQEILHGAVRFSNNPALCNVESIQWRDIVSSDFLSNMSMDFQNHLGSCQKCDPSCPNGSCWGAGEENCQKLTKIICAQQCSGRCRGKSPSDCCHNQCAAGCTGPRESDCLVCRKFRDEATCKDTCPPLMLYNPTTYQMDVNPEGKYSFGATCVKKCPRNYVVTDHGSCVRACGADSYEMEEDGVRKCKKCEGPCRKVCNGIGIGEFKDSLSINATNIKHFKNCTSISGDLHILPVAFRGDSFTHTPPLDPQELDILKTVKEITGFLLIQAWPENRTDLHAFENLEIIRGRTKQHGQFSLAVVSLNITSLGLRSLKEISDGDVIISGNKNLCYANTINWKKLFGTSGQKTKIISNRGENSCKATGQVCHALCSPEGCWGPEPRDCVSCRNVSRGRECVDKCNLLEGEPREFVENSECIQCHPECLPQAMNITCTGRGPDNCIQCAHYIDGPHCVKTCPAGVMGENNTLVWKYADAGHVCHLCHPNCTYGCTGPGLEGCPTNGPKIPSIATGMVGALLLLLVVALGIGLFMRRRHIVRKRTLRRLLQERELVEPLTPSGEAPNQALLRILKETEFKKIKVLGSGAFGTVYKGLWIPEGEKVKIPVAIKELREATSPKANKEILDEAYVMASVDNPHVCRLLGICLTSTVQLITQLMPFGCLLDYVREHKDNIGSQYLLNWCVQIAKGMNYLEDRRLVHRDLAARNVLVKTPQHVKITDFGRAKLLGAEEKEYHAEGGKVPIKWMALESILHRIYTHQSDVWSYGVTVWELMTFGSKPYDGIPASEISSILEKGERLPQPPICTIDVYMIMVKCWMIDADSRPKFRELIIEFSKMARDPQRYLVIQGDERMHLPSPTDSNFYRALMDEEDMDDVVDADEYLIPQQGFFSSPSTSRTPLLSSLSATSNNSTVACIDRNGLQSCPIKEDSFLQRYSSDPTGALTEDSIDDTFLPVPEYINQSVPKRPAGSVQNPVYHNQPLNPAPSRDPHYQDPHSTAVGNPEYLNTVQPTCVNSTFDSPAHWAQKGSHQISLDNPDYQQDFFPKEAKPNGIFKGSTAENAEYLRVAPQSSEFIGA
Procedure: as §1, with “20 mins. Reactions were quenched with the addition of 10 μL of phospho-tyrosine antibody-Europium(III) cryptate (1-to-180 volume ratio) and Streptavidin-XL665 (46.7 nM) in EDTA-containing detection buffer, then incubated at room temperature for 1 hour, and read with a PHERAstar plate reader (excitation=337 nm, emission=620 nm and 665 nm).” for “20 mins.”

[2] = in combination with 1 μg/ml cetuximab, read-out: Cell IC50 BaF3 L858R/T790M compound + cetuximab
[3] = single agent, read-out: Cell IC50 EGFR BaF3 L858R/T790M

Chain of EGFR L858R/T790M mutant Ba/F3 cells (P00533 whole entry T790M/L858R): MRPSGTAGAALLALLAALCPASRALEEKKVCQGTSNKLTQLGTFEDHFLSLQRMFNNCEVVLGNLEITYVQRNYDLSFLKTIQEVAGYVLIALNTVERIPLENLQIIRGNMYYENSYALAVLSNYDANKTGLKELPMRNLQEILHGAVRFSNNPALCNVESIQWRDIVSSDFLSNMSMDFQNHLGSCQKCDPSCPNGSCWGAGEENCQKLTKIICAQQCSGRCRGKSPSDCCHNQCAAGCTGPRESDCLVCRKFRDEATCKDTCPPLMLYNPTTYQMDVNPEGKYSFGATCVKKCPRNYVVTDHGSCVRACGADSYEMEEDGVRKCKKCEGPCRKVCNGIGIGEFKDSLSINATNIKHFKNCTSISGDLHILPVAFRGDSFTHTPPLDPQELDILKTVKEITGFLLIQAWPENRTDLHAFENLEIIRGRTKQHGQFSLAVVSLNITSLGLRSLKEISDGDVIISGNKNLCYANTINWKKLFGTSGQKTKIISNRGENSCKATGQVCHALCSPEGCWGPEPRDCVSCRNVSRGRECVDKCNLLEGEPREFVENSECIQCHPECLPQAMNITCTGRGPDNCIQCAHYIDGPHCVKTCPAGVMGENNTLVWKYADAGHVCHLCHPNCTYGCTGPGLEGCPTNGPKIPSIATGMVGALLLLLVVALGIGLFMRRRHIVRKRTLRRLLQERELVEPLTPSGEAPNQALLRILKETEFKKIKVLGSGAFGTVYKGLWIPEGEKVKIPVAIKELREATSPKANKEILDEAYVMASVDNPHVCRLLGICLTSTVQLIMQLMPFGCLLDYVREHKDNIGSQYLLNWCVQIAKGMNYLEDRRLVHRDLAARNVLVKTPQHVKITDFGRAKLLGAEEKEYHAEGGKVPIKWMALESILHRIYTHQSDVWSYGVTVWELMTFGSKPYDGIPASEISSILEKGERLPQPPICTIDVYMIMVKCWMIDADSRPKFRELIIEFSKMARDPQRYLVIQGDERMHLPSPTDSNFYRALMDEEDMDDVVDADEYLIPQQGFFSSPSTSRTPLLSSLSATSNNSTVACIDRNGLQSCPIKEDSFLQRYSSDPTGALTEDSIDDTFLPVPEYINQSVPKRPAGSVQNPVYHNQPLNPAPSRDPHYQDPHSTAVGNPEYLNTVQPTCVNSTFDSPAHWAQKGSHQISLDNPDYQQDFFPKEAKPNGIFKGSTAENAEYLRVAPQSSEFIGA

Row | Compound | GI50 [1, 2] | GI50 [1, 3] | IC50 (EGFR L858R/T790M) | IC50 (EGFR L858R)
1 | O=C(Nc1ccccn1)C(c1cccc(F)c1)n1cnc2ccc(Br)cc2c1=O (stereo not shown) [Compound 034, 2-(6-Bromo-4-oxoquinazolin-3(4H)-yl)-2-(3-fluorophenyl)-N-(pyridin-2-yl)acetamide] | 1.8 µM | > 10 µM | 0.018 µM | > 1 µM
2 | CN1CCN(c2ccc(-c3ccc4ncn(C(C(=O)Nc5ccccn5)c5ccccc5)c(=O)c4c3)cc2)CC1 (stereo not shown) [Compound 039, 2-(6-(4-(4-Methylpiperazin-1-yl)-phenyl)-4-oxoquinazolin-3(4H)-yl)-2-phenyl-N-(pyridin-2-yl)acetamide] | 0.076 µM | 1.78 µM | 0.009 µM | 0.191 µM
3 | CN1CCC(c2ccc(-c3ccc4c(=O)n(C(C(=O)Nc5nccs5)c5ccccc5)ncc4c3)cc2)CC1 (stereo not shown) [Compound 026, 2-(6-(4-(1-Methylpiperidin-4-yl)-phenyl)-1-oxophthalazin-2(1H)-yl)-2-phenyl-N-(thiazol-2-yl)acetamide] | 0.56 µM | 1.22 µM | 0.01 µM | 0.067 µM
4 | O=C(Nc1nccs1)C(c1ccccc1)n1ccc2cc(Br)ccc2c1=O (stereo not shown) [Compound 003, 2-(6-Bromo-1-oxoisoquinolin-2(1H)-yl)-2-phenyl-N-(thiazol-2-yl)-acetamide] | 2 µM | > 10 µM | 0.016 µM | 0.245 µM
5 | CN1CCN(c2ccc(-c3ccc4ncn(C(C(=O)Nc5nccs5)c5ccccc5)c(=O)c4c3F)cc2)CC1 (stereo not shown) [Compound 071, 2-(5-Fluoro-6-(4-(4-methyl-piperazin-1-yl)phenyl)-4-oxo-quinazolin-3(4H)-yl)-2-phenyl-N-(thiazol-2-yl)acetamide] | 0.02 µM | 2.37 µM | 0.0007 µM | 0.005 µM
6 | CN1CCN(c2ccc(-c3ccc4ncn(C(C(=O)Nc5nccs5)c5cccnc5)c(=O)c4c3)cc2)CC1 (stereo not shown) [Compound 064, 2-(6-(4-(4-Methylpiperazin-1-yl)-phenyl)-4-oxoquinazolin-3(4H)-yl)-2-(pyridin-3-yl)-N-(thiazol-2-yl)-acetamide] | 0.49 µM | 6.15 µM | 0.005 µM | 0.078 µM
7 | CN1CCC(c2ccc(-c3ccc4ncn(C(C(=O)Nc5nccs5)c5cccnc5)c(=O)c4c3)cc2)CC1 (stereo not shown) [Compound 065, 2-(6-(4-(1-Methylpiperidin-4-yl)-phenyl)-4-oxoquinazolin-3(4H)-yl)-2-(pyridin-3-yl)-N-(thiazol-2-yl)-acetamide] | 0.38 µM | 7.81 µM | 0.002 µM | 0.029 µM
8 | CN1CCC(c2ccc(-c3cnc4ncn(C(C(=O)Nc5nccs5)c5ccccc5)c(=O)c4c3)cc2)CC1 (stereo not shown) [Compound 058, 2-(6-(4-(1-Methylpiperidin-4-yl)phenyl)-4-oxopyrido[2,3-d]-pyrimidin-3(4H)-yl)-2-phenyl-N-(thiazol-2-yl)acetamide] | 0.012 µM | 0.93 µM | 0.002 µM | 0.008 µM
9 | CN1CCC(c2ccc(-c3ccc4cnn(C(C(=O)Nc5nccs5)c5ccccc5)c(=O)c4c3)cc2)CC1 (stereo not shown) [Compound 042, 2-(7-(4-(1-Methylpiperidin-4-yl)-phenyl)-1-oxophtharazin-2(1H)-yl)-2-phenyl-N-(thiazol-2-yl)acetamide] | 0.25 µM | 1.46 µM | 0.004 µM | 0.035 µM
10 | O=C(Nc1nccs1)C(c1cccnc1)n1cnc2ccc(Br)cc2c1=O (stereo not shown) [Compound 062, 2-(6-Bromo-4-oxoquinazolin-3(4H)-yl)-2-(pyridin-3-yl)-N-(thiazol-2-yl)-acetamide] | > 10 µM | > 10 µM | 0.22 µM | > 1 µM
11 | CN1CCC(c2ccc(-c3ccc4c(=O)n(C(C(=O)Nc5nccs5)c5cccc(F)c5)ccc4c3)cc2)CC1 (stereo not shown) [Compound 025, 2-(3-Fluorophenyl)-2-(6-(4-(1-methyl-piperidin-4-yl)phenyl)-1-oxo-isoquinolin-2(1H)-yl)-N-(thiazol-2-yl)-acetamide] | 0.02 µM | 0.9 µM | 0.003 µM | 0.005 µM

The remaining lines, values ahead:

Row | GI50 [1, 2] | GI50 [1, 3] | IC50 (EGFR L858R/T790M) | IC50 (EGFR L858R) | Compound
12 | 0.044 µM | 3.36 µM | 0.0007 µM | 0.008 µM | CN1CCN(c2ccc(-c3ccc4ncn(C(C(=O)Nc5nccs5)c5ccccc5F)c(=O)c4c3F)cc2)CC1 (stereo not shown) [Compound 076, 2-(5-Fluoro-6-(4-(4-methyl-piperazin-1-yl)phenyl)-4-oxo-quinazolin-3(4H)-yl)-2-(2-fluoro-phenyl)-N-(thiazol-2-yl)acetamide]
13 | 0.007 µM | 1.03 µM | 0.0001 µM | 0.001 µM | CN1CCC(c2ccc(-c3ccc4ncn(C(C(=O)Nc5nccs5)c5ccccc5F)c(=O)c4c3F)cc2)CC1 (stereo not shown) [Compound 075, 2-(5-Fluoro-6-(4-(1-methylpiperidin-4-yl)phenyl)-4-oxoquinazolin-3-(4H)-yl)-2-(2-fluorophenyl)-N-(thiazol-2-yl)acetamide]
14 | 0.41 µM | 2.48 µM | 0.042 µM | 0.091 µM | Cc1nc2cc(-c3ccc(C4CCN(C)CC4)cc3)ccc2c(=O)n1C(C(=O)Nc1nccs1)c1ccccc1 (stereo not shown) [Compound 054, 2-(2-Methyl-7-(4-(1-methylpiperidin-4-yl)phenyl)-4-oxoquinazolin-3(4H)-yl)-2-phenyl-N-(thiazol-2-yl)acetamide]
15 | 0.021 µM | 1.58 µM | 0.0004 µM | 0.004 µM | CN1CCC(c2ccc(-c3ccc4ncn(C(C(=O)Nc5ccccn5)c5cccc(F)c5)c(=O)c4c3)cc2)CC1 (stereo not shown) [Compound 032, 2-(3-Fluorophenyl)-2-(6-(4-(1-methyl-piperidin-4-yl)phenyl)-4-oxo-quinazolin-3(4H)-yl)-N-(pyridin-2-yl)-acetamide]
16 | 0.02 µM | 1.19 µM | 0.001 µM | 0.003 µM | CN1CCC(c2ccc(-c3ccc4c(=O)n(C(C(=O)Nc5nccs5)c5ccccc5)ccc4c3)cc2)CC1 (stereo not shown) [Compound 016, 2-(6-(4-(1-Methylpiperidin-4-yl)-phenyl)-1-oxoisoquinolin-2(1H)-yl)-2-phenyl-N-(thiazol-2-yl)acetamide]
17 | 0.044 µM | 1.55 µM | 0.002 µM | 0.051 µM | CN1CCN(c2ccc(-c3ccc4ncn(C(C(=O)Nc5ccccn5)c5cccc(F)c5)c(=O)c4c3)cc2)CC1 (stereo not shown) [Compound 033, 2-(3-Fluorophenyl)-2-(6-(4-(4-methyl-piperazin-1-yl)phenyl)-4-oxo-quinazolin-3(4H)-yl)-N-(pyridin-2-yl)-acetamide]
18 | 0.009 µM | 0.04 µM | 0.0001 µM | 0.0002 µM | CN1CCC(c2ccc(-c3ccc4ncn(C(C(=O)Nc5nccs5)c5cc(F)ccc5O)c(=O)c4c3F)cc2)CC1 (stereo not shown) [Compound 083, 2-(5-Fluoro-2-hydroxyphenyl)-2-(5-fluoro-6-(4-(1-methylpiperidin-4-yl)phenyl)-4-oxoquinazolin-3(4H)-yl)-N-(thiazol-2-yl)acetamide]
19 | 0.97 µM | 2.9 µM | 0.016 µM | 0.103 µM | CN1CCN(c2ccc(-c3cc4ncn(C(C(=O)Nc5nccs5)c5ccccc5)c(=O)c4cc3F)cc2)CC1 (stereo not shown) [Compound 021, 2-(6-Fluoro-7-(4-(4-methylpiperazin-1-yl)phenyl)-4-oxoquinazolin-3(4H)-yl)-2-phenyl-N-(thiazol-2-yl)acetamide]
